Results reported in article PMC4904246 (Journal of Medicinal Chemistry, 2016).
pEC50, pIC50: −log10 of the molar value. ≈ marks a conversion by molar mass, not a printed value. Read-outs that look alike come from different tables or passages of the source. Marks after values point to notes of the source that are not given here.

How the values were obtained:
[1] = pH 6.5, 30 min at room temperature; cited from earlier work
P. falciparum 3D7 cells = conditions: read-out: EC50 Pf3D7 cells; previous reports; 2 from 15, 3 from 16; cited from earlier work
PvDHODH [2] = target: T1, PvDHODH (Plasmodium vivax, UniProt A5K1N1); conditions: read-out: PvDHODH IC50; previous reports; 2 from 15, 3 from 16; cited from earlier work
T1 sequence (A5K1N1 160-572): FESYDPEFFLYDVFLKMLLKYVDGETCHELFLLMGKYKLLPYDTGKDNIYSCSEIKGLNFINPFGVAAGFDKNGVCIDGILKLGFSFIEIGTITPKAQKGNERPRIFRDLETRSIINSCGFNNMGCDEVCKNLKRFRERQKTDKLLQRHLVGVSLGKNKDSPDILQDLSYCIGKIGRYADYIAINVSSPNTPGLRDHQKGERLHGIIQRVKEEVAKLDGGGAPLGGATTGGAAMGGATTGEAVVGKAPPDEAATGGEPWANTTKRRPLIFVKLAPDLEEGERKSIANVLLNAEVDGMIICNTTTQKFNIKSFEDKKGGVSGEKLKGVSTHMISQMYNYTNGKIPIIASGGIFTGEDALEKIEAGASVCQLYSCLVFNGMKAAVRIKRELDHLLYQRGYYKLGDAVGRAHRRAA

[3] = scaled; cited from earlier work
hDHODH [4] = target: T2, hDHODH (Homo sapiens, UniProt Q02127); conditions: read-out: hDHODH IC50; previous reports; 2 from 15, 3 from 16; cited from earlier work
[5] = scaled; cited from earlier work; remark: listed apart in the source
[6] = kinetic aqueous solubility by nephelometry; type: physicochemical; conditions: pH 6.5 phosphate buffer, pH 6.5
[7] = in vitro metabolism, human liver microsomes; type: in vitro ADME; conditions: human, pooled human liver microsomes
[8] = plasma protein binding by ultracentrifugation, mouse plasma; type: in vitro ADME; conditions: for mouse PPB (% bound): approximation based on rat and human plasma protein binding data
[9] = plasma protein binding by ultracentrifugation, human plasma; type: in vitro ADME
PvDHODH [10] = target: T1, PvDHODH; conditions: PvDHODH IC50 higher than PfDHODH IC50
dog DHODH = dog DHODH (Canis lupus familiaris, UniProt A0A8I3MWX2); test: biochemical
in vivo = conditions: Sprague-Dawley, rat, plasma, iv
[11] = test system: P. falciparum Pf3D7_0087/N9 parasites; conditions: total blood AUC at the ED90, Day 1 pharmacokinetic data; QD; only two dose levels
[12] = plasma protein binding by ultracentrifugation, rat plasma; type: in vitro ADME
hERG K+ channel = hERG K+ channel (Homo sapiens, UniProt Q12809); conditions: SCID study
[13] = approximate
hDHODH [14] = target: T2, hDHODH; test: biochemical
hDHODH [15] = target: T2, hDHODH

T2 sequence (Q02127 31-395 limits assumed): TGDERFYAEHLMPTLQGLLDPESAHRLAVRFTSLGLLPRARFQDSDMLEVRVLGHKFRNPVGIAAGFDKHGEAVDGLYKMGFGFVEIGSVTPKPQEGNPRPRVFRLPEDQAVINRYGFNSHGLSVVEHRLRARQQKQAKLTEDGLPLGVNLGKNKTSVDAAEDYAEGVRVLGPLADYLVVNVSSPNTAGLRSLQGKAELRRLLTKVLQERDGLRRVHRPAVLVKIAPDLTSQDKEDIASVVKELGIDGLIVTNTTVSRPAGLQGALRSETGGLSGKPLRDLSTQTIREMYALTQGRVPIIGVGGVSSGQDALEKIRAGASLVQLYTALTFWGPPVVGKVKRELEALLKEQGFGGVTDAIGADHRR
Sequence of dog DHODH (A0A8I3MWX2 1-406): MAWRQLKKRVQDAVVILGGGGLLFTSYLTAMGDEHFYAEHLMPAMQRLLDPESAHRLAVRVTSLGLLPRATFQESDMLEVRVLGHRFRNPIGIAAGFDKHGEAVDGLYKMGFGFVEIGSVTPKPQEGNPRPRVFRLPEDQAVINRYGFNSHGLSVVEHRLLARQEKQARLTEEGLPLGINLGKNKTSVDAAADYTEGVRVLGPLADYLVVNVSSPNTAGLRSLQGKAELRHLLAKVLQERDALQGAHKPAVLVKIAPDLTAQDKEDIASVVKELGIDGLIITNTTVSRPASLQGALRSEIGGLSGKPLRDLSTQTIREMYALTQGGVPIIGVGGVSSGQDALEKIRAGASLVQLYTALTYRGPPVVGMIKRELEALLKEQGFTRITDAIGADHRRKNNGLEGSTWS
Sequence of hERG K+ channel (Q12809 whole entry): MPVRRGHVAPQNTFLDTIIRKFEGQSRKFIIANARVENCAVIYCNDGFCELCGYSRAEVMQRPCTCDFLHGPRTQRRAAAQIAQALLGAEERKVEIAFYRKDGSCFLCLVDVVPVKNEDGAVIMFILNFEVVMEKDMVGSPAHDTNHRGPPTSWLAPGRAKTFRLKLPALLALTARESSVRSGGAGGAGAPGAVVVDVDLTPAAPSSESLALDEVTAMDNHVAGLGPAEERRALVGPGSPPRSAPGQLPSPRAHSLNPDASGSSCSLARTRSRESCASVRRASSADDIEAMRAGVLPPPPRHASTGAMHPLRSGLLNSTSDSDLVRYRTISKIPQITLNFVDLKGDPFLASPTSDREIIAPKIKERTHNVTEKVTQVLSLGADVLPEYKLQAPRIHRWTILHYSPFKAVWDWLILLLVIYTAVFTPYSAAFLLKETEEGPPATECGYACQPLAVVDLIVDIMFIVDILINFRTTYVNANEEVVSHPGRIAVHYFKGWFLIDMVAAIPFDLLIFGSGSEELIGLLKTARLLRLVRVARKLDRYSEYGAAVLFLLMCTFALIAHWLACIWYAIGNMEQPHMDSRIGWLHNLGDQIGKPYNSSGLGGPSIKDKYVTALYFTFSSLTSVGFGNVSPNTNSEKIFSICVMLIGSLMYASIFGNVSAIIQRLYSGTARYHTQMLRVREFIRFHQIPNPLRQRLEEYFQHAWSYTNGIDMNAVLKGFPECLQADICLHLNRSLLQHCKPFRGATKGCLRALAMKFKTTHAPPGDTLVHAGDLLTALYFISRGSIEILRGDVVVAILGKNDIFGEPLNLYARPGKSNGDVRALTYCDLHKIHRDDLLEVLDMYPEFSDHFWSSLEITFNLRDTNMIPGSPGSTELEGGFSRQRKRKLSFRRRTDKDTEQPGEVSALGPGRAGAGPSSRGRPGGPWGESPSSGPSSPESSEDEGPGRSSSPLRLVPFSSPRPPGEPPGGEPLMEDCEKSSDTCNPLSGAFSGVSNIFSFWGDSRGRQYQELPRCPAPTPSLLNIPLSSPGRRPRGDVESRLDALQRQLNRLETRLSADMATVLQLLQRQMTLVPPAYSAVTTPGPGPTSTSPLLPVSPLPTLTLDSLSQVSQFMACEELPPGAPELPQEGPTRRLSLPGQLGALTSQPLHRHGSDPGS

SMILES | solubility kinetic at 30 min [6] [µg/mL] | CLint scaled at 1 μM [7] [mL/min/kg] | PPB human (% bound) [9] [% bound] | difference of IC50 P. vivax DHODH versus PfDHODH (PvDHODH [10]) | pIC50 (dog DHODH) | PPB rat (% bound) [12] [% bound] | also measured
Cc1cc(Nc2ccc3ccccc3c2)n2ncnc2n1 [Compound 2, (5-methyl[1,2,4]triazolo[1,5-a]pyrimidin-7-yl)naphthalen-2-ylamine] |  |  |  |  |  |  | kinetic solubility pH 6.5 [1]: 12.5–25 μg/mL; pEC50 (P. falciparum 3D7 cells): 7.17; pIC50 (PvDHODH [2]): 6.64; predicted in vivo CLint human [3]: 79 mL/min/kg; pIC50 (hDHODH [4]): < 4.00; predicted in vivo CLint mouse [5]: 591 mL/min/kg
Cc1cc(Nc2ccc(C(F)(F)F)cc2)n2ncnc2n1 [Compound 3, (5-methyl[1,2,4]triazolo[1,5-a]pyrimidin-7-yl)(4-trifluoromethylphenyl)amine] |  |  |  |  |  |  | kinetic solubility pH 6.5 [1]: 6.3–12.5 μg/mL; pIC50 (PvDHODH [2]): 5.59; predicted in vivo CLint human [3]: 6.2/ND/ND mL/min/kg
Cc1cc(NC2CCc3cc(F)ccc3C2)n2nc(C(C)(F)F)nc2n1 (stereo not shown) [Compound 6, 2-(1,1-Difluoroethyl)-N-(6-fluoro-1,2,3,4-tetrahydronaphthalen-2-yl)-5-methyl-[1,2,4]triazolo[1,5-a]pyrimidin-7-amine] | 6.3 to 12.5 (≈ 17.4 to 34.6 µM) | 12 |  |  |  |  | 
Cc1cc(NC2CCc3cc(Cl)ccc3C2)n2nc(C(C)(F)F)nc2n1 (stereo not shown) [Compound 7, 2-(1,1-Difluoroethyl)-N-(6-chloro-1,2,3,4-tetrahydronaphthalen-2-yl)-5-methyl-[1,2,4]triazolo[1,5-a]pyrimidin-7-amine] | 3.1 to 6.3 (≈ 8.2 to 16.7 µM) | < 5.8 | 98.8 | 5–8 fold | < 4.00 | 99.2 | mouse PPB (% bound) [8]: 99.2 ^c % bound; clearance (in vivo): 3.5 mL/min/kg; AUCED90 [11]: >23 μM·h/day
Cc1cc(N[C@H]2CCc3ccc(Cl)cc3C2)n2nc(C(C)(F)F)nc2n1 [Compound 9, (S)-N-(7-Chloro-1,2,3,4-tetrahydronaphthalen-2-yl)-2-(1,1-difluoroethyl)-5-methyl-[1,2,4]triazolo[1,5-a]pyrimidin-7-amine] | 3.1 to 6.3 (≈ 8.2 to 16.7 µM) | < 5.8 | 96.7 | 1.5–3 fold | < 4.00 | 96.4 | PPB mouse (% bound) ([8]; mouse plasma, ultracentrifugation): 97.4 % bound; unbound Cmax at the ED90 lower than the IC50 on the hERG channel (hERG K+ channel): ~30 fold; Cmax at the ED90 in the SCID study, unbound concentration [13]: approximately 0.05 μM
Cc1cc(NC2CCc3cc(Br)ccc3C2)n2nc(C(C)(F)F)nc2n1 (stereo not shown) [Compound 12, 2-(1,1-Difluoroethyl)-N-(6-bromo-1,2,3,4-tetrahydronaphthalen-2-yl)-5-methyl-[1,2,4]triazolo[1,5-a]pyrimidin-7-amine] | 3.1 to 6.3 (≈ 7.34 to 14.9 µM) | < 5.8 |  |  |  |  | 
Cc1cc(NC2CCc3ccc(Br)cc3C2)n2nc(C(C)(F)F)nc2n1 (stereo not shown) [Compound 13, 2-(1,1-Difluoroethyl)-N-(7-bromo-1,2,3,4-tetrahydronaphthalen-2-yl)-5-methyl-[1,2,4]triazolo[1,5-a]pyrimidin-7-amine] | 1.6 to 3.1 (≈ 3.79 to 7.34 µM) | < 5.8 | 96.3 | 1.5–3 fold | < 4.00 | 97.2 | mouse PPB (% bound) [8]: 97.2 ^c % bound; clearance (in vivo): 22.4 mL/min/kg; pIC50 (hDHODH [14]): < 4.00; pIC50 (hDHODH [15]; read-out: DHODH IC50 human, Table 2, for 1 four independent replicates): < 4.00; microsomal CLint at 1 μM [7]: < 7 µL/min/mg
Cc1cc(NC2CCc3ccc(Br)cc3C2)n2nc(C(C)(F)F)nc2n1 (stereo not shown) [Compound 14, 2-(1,1-Difluoroethyl)-N-(7-bromo-1,2,3,4-tetrahydronaphthalen-2-yl)-5-methyl-[1,2,4]triazolo[1,5-a]pyrimidin-7-amine] |  |  |  |  |  |  | pIC50 (hDHODH [15]; read-out: hDHODH IC50): < 4.00
COc1ccc2c(c1)CC(Nc1cc(C)nc3nc(C(C)(F)F)nn13)CC2 (stereo not shown) [Compound 16, 2-(1,1-Difluoroethyl)-N-(7-methoxy-1,2,3,4-tetrahydronaphthal-en-2-yl)-5-methyl-[1,2,4]triazolo[1,5-a]pyrimidin-7-amine] | 12.5 to 25 (≈ 33.5 to 67 µM) | 15 |  |  |  |  | 
Cc1cc(NC2CCc3cc(F)c(F)cc3C2)n2nc(C(C)(F)F)nc2n1 (stereo not shown) [Compound 19, 2-(1,1-Difluoroethyl)-N-(6,7-difluoro-1,2,3,4-tetrahydronaphthalen-2-yl)-5-methyl-[1,2,4]triazolo[1,5-a]pyrimidin-7-amine] |  | 9.1 |  |  |  |  | 
